From the supplement of paper PMC10307832

Legend:
Assay in all cases: relative viability (nuclei count vs DMSO), 5 days (fraction); higher = more cells survive
[1] = system: HCC-15
In short: (§1)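 The day after seeding in 1536-well plates, lung cancer cell lines were treated by pin tool with a single drug, or with a fixed anchor-drug dose together with five library-drug doses (not always all listed) in √10 steps. After 5 days, a combined fix-and-stain solution (final 0.05% Triton X-100, 1% formaldehyde, 1 ug/ml Hoechst) was added. Nuclei counted on 4× images gave relative viability as treated counts over vehicle counts, reported as the median of duplicate plates.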

[2] = system: SW 1573
In short: as §1

[3] = system: RERF-LC-KJ
In short: as §1

[4] = system: COR-L23
In short: as §1

[5] = system: LCLC-97TM1
In short: as §1

[6] = system: NCI-H2009
In short: as §1

[7] = system: LCLC-103H
In short: as §1

[8] = system: HARA
In short: as §1

[9] = system: 201T
In short: as §1

[10] = system: NCI-H2023
In short: as §1

[11] = system: NCI-H2126
In short: as §1

[12] = system: LOU-NH91
In short: as §1

[13] = system: NCI-H1993
In short: as §1

[14] = system: NCI-H460
In short: as §1

[15] = system: A-427
In short: as §1

[16] = system: HCC-366
In short: as §1

[17] = system: HCC-78
In short: as §1

[18] = system: ChaGo-K-1
In short: as §1

[19] = system: NCI-H1734
In short: as §1

[20] = system: NCI-H650
In short: as §1

[21] = system: NCI-H1650
In short: as §1

[22] = system: HCC-44
In short: as §1

[23] = system: NCI-H441
In short: as §1

`O=C(O)CCCCC(CCSCc1ccccc1)SCc1ccccc1` (centres undefined) [CPI-613] + Nc1nc2[nH]cc(CCc3ccc(C(=O)N[C@@H](CCC(=O)O)C(=O)O)cc3)c2c(=O)[nH]1 [Pemetrexed] (partner 0.2 µM) was tested, and the relative viability ([1]; first compound 5 µM) was 0.231, the relative viability ([1]; first compound 15.81 µM) was 0.227 and the relative viability ([1]; first compound 50 µM) was 0.221. For the same compound, the relative viability ([1]; first compound 158.11 µM) was 0.155, the relative viability ([1]; first compound 500 µM) was 0.0248 and the relative viability ([2]; first compound 5 µM) was 0.771. For the same compound, the relative viability ([2]; first compound 15.81 µM) was 0.777, the relative viability ([2]; first compound 50 µM) was 0.781 and the relative viability ([2]; first compound 158.11 µM) was 0.317. It also gave a relative viability ([2]; first compound 500 µM) of 0.0621, a relative viability ([3]; first compound 5 µM) of 0.476 and a relative viability ([3]; first compound 15.81 µM) of 0.47. It also gave a relative viability ([3]; first compound 50 µM) of 0.461, a relative viability ([3]; first compound 158.11 µM) of 0.341 and a relative viability ([3]; first compound 500 µM) of 0.312. It also gave a relative viability ([4]; first compound 5 µM) of 0.216, a relative viability ([4]; first compound 15.81 µM) of 0.197 and a relative viability ([4]; first compound 50 µM) of 0.192. The relative viability ([4]; first compound 158.11 µM) was 0.2, the relative viability ([4]; first compound 500 µM) was 0.013 and the relative viability ([5]; first compound 5 µM) was 0.166. It also gave a relative viability ([5]; first compound 15.81 µM) of 0.208, a relative viability ([5]; first compound 50 µM) of 0.176 and a relative viability ([5]; first compound 158.11 µM) of 0.162. The relative viability ([5]; first compound 500 µM) was 0.0608, the relative viability ([6]; first compound 5 µM) was 0.985 and the relative viability ([6]; first compound 15.81 µM) was 1. It also gave a relative viability ([6]; first compound 50 µM) of 0.947, a relative viability ([6]; first compound 158.11 µM) of 0.322 and a relative viability ([6]; first compound 500 µM) of 0.0262. The relative viability ([7]; first compound 5 µM) was 0.514, the relative viability ([7]; first compound 15.81 µM) was 0.462 and the relative viability ([7]; first compound 50 µM) was 0.414. It also gave a relative viability ([7]; first compound 158.11 µM) of 0.452, a relative viability ([7]; first compound 500 µM) of 0.272 and a relative viability ([8]; first compound 5 µM) of 0.26. The relative viability ([8]; first compound 15.81 µM) was 0.229, the relative viability ([8]; first compound 50 µM) was 0.236 and the relative viability ([8]; first compound 158.11 µM) was 0.269. For the same compound, the relative viability ([8]; first compound 500 µM) was 0.0403, the relative viability ([9]; first compound 5 µM) was 0.268 and the relative viability ([9]; first compound 15.81 µM) was 0.341. The relative viability ([9]; first compound 50 µM) was 0.327, the relative viability ([9]; first compound 158.11 µM) was 0.24 and the relative viability ([9]; first compound 500 µM) was 0.179. For the same compound, the relative viability ([10]; first compound 5 µM) was 0.233, the relative viability ([10]; first compound 15.81 µM) was 0.2 and the relative viability ([10]; first compound 50 µM) was 0.175. The relative viability ([10]; first compound 158.11 µM) was 0.0911, the relative viability ([10]; first compound 500 µM) was 0.0103 and the relative viability ([11]; first compound 5 µM) was 0.65. The relative viability ([11]; first compound 15.81 µM) was 0.632, the relative viability ([11]; first compound 50 µM) was 0.636 and the relative viability ([11]; first compound 158.11 µM) was 0.385. The relative viability ([11]; first compound 500 µM) was 0.219, the relative viability ([12]; first compound 5 µM) was 0.389 and the relative viability ([12]; first compound 15.81 µM) was 0.332. For the same compound, the relative viability ([12]; first compound 50 µM) was 0.367, the relative viability ([12]; first compound 158.11 µM) was 0.399 and the relative viability ([12]; first compound 500 µM) was 0.233. It also gave a relative viability ([13]; first compound 5 µM) of 0.601, a relative viability ([13]; first compound 15.81 µM) of 0.522 and a relative viability ([13]; first compound 50 µM) of 0.537. For the same compound, the relative viability ([13]; first compound 158.11 µM) was 0.378, the relative viability ([13]; first compound 500 µM) was 0.278 and the relative viability ([14]; first compound 5 µM) was 0.0641. It also gave a relative viability ([14]; first compound 15.81 µM) of 0.0607, a relative viability ([14]; first compound 50 µM) of 0.0741 and a relative viability ([14]; first compound 158.11 µM) of 0.0795. For the same compound, the relative viability ([14]; first compound 500 µM) was 0.0168, the relative viability ([15]; first compound 5 µM) was 1.04 and the relative viability ([15]; first compound 15.81 µM) was 0.84. It also gave a relative viability ([15]; first compound 50 µM) of 0.928, a relative viability ([15]; first compound 158.11 µM) of 0.857 and a relative viability ([15]; first compound 500 µM) of 0.444. For the same compound, the relative viability ([16]; first compound 5 µM) was 0.135, the relative viability ([16]; first compound 15.81 µM) was 0.152 and the relative viability ([16]; first compound 50 µM) was 0.162. The relative viability ([16]; first compound 158.11 µM) was 0.123, the relative viability ([16]; first compound 500 µM) was 0.0078 and the relative viability ([17]; first compound 15.81 µM) was 0.898. The relative viability ([17]; first compound 50 µM) was 0.906, the relative viability ([17]; first compound 158.11 µM) was 0.874 and the relative viability ([17]; first compound 500 µM) was 0.913. The relative viability ([18]; first compound 5 µM) was 0.269, the relative viability ([18]; first compound 15.81 µM) was 0.261 and the relative viability ([18]; first compound 50 µM) was 0.264. It also gave a relative viability ([18]; first compound 158.11 µM) of 0.248, a relative viability ([18]; first compound 500 µM) of 0.187 and a relative viability ([19]; first compound 5 µM) of 0.387. It also gave a relative viability ([19]; first compound 15.81 µM) of 0.418, a relative viability ([19]; first compound 50 µM) of 0.411 and a relative viability ([19]; first compound 158.11 µM) of 0.38. It also gave a relative viability ([19]; first compound 500 µM) of 0.131, a relative viability ([20]; first compound 5 µM) of 1.01 and a relative viability ([20]; first compound 15.81 µM) of 0.821. The relative viability ([20]; first compound 50 µM) was 0.897, the relative viability ([20]; first compound 158.11 µM) was 0.641 and the relative viability ([20]; first compound 500 µM) was 0.826. For the same compound, the relative viability ([21]; first compound 5 µM) was 0.346, the relative viability ([21]; first compound 15.81 µM) was 0.376 and the relative viability ([21]; first compound 50 µM) was 0.393. For the same compound, the relative viability ([21]; first compound 158.11 µM) was 0.151, the relative viability ([21]; first compound 500 µM) was 0.0174 and the relative viability ([22]; first compound 5 µM) was 0.635. For the same compound, the relative viability ([22]; first compound 15.81 µM) was 0.61, the relative viability ([22]; first compound 50 µM) was 0.592 and the relative viability ([22]; first compound 158.11 µM) was 0.622. For the same compound, the relative viability ([22]; first compound 500 µM) was 0.53, the relative viability ([23]; first compound 5 µM) was 0.266 and the relative viability ([23]; first compound 15.81 µM) was 0.242. The relative viability ([23]; first compound 50 µM) was 0.236, the relative viability ([23]; first compound 158.11 µM) was 0.151 and the relative viability ([23]; first compound 500 µM) was 0.0045.
